Test results as given in patent US11986532B2 (Arvinas Operations, Inc., priority 2021, dated 2024).
Where two headings read alike, the source gives them in different places.

Biological target: T1, BCL6 (Homo sapiens, UniProt P41182)
T1 construct: endogenous in cells; host or cells: T47D breast cancer epithelial cells
Experiment: Immunofluorescence protocol for high content imaging of BCL6 (degradation) in T47D cells, 3 days compound treatment
Type: cell-based
Settings: for DC50: read-out: Mean DC50 (nM)* category; for Dmax: read-out: Mean Dmax (%)** category
Method in brief: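 Cells are seeded to reach ~70-90% confluence at endpoint, then dosed next day with compound at a final top concentration of 0.1 or 1 μM (11 points, 3-fold). After 3 days, BCL6 is detected by immunofluorescence and quantified by high-content imaging.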

[1] = T47D cells, 3 days compound treatment

Structure (SMILES) | DC50 [1] | Dmax [1] | Dmax (T47D) | DC50
CNC(=O)COc1cc2cc(Nc3nc(N4CCN(CC5CCN(c6cc(F)c7c(c6)CN(C6CCC(=O)NC6=O)C7=O)CC5)CC4)ncc3Cl)ccc2n(C(C)C)c1=O (stereo not drawn) [Compound 18, 2-{[6-({5-chloro-2-[4-({1-[2-(2,6-dioxopiperidin-3-yl)-7-fluoro-1-oxo-2,3-dihydro-1H-isoindol-5-yl]piperidin-4-yl}methyl)piperazin-1-yl]pyrimidin-4-yl}amino)-2-oxo-1-(propan-2-yl)-1,2-dihydroquinolin-3-yl]oxy}-N-methylacetamide] | < 10 nM | 50 to 70% | – | –
CNC(=O)COc1cc2cc(Nc3nc(N4CCC(O[C@H]5C[C@H](N6CCC(c7cc8c(c(OC)c7)C(=O)N(C7CCC(=O)NC7=O)C8)CC6)C5)CC4)ncc3Cl)ccc2n(C(C)C)c1=O (stereo partly drawn) [Compound 103, 2-({6-[(5-chloro-2-{4-[(1r,3r)-3-{4-[2-(2,6-dioxopiperidin-3-yl)-7-methoxy-1-oxo-2,3-dihydro-1H-isoindol-5-yl]piperidin-1-yl}cyclobutoxy]piperidin-1-yl}pyrimidin-4-yl)amino]-2-oxo-1-(propan-2-yl)-1,2-dihydroquinolin-3-yl}oxy)-N-methylacetamide] | < 10 nM | 50 to 70% | – | –
CNC(=O)COc1cc2cc(Nc3nc(N4CCN(CC5CCN(c6ccc(F)c7c6CN(C6CCC(=O)NC6=O)C7=O)CC5)CC4)ncc3Cl)ccc2n(C(C)C)c1=O (stereo not drawn) [Compound 120, 2-{[6-({5-chloro-2-[4-({1-[2-(2,6-dioxopiperidin-3-yl)-7-fluoro-1-oxo-2,3-dihydro-1H-isoindol-4-yl]piperidin-4-yl}methyl)piperazin-1-yl]pyrimidin-4-yl}amino)-2-oxo-1-(propan-2-yl)-1,2-dihydroquinolin-3-yl]oxy}-N-methylacetamide] | < 10 nM | 50 to 70% | – | –
CNC(=O)COc1cc2cc(Nc3nc(N4CCC(O[C@H]5C[C@H](N6CCC(c7ccc8c(n7)CN(C7CCC(=O)NC7=O)C8=O)CC6)C5)CC4)ncc3Cl)ccc2n(C(C)C)c1=O (stereo partly drawn) [Compound 214, 2-({6-[(5-chloro-2-{4-[(1r,3r)-3-{4-[6-(2,6-dioxopiperidin-3-yl)-5-oxo-5H,6H,7H-pyrrolo[3,4-b]pyridin-2-yl]piperidin-1-yl}cyclobutoxy]piperidin-1-yl}pyrimidin-4-yl)amino]-2-oxo-1-(propan-2-yl)-1,2-dihydroquinolin-3-yl}oxy)-N-methylacetamide] | – | – | 50 to 70% | < 10 nM
CNC(=O)COc1cc2cc(Nc3nc(N4CCC(O[C@H]5C[C@H](N6CCN(c7cc(OC)c8c(c7)C(=O)N(C7CCC(=O)NC7=O)C8=O)CC6)C5)CC4)ncc3Cl)ccc2n(C(C)C)c1=O (stereo partly drawn) [Compound 379, 2-({6-[(5-chloro-2-{4-[(1r,3r)-3-{4-[2-(2,6-dioxopiperidin-3-yl)-7-methoxy-1,3-dioxo-2,3-dihydro-1H-isoindol-5-yl]piperazin-1-yl}cyclobutoxy]piperidin-1-yl}pyrimidin-4-yl)amino]-2-oxo-1-(propan-2-yl)-1,2-dihydroquinolin-3-yl}oxy)-N-methylacetamide] | – | – | 50 to 70% | < 10 nM
CNC(=O)COc1cc2cc(Nc3nc(N4CCC(CN5CCC6(CN(c7ccc8c(c7)C(=O)N(C7CCC(=O)NC7=O)C8=O)C6)C(F)(F)C5)CC4)ncc3Cl)ccc2n(C)c1=O (stereo not drawn) [Compound 127, 2-{[6-({5-chloro-2-[4-({2-[2-(2,6-dioxopiperidin-3-yl)-1,3-dioxo-2,3-dihydro-1H-isoindol-5-yl]-5,5-difluoro-2,7-diazaspiro[3.5]nonan-7-yl}methyl)piperidin-1-yl]pyrimidin-4-yl}amino)-1-methyl-2-oxo-1,2-dihydroquinolin-3-yl]oxy}-N-methylacetamide] | < 10 nM | < 50% | – | –
CNC(=O)COc1cc2cc(Nc3nc(N4CCC(O[C@H]5C[C@H](N6CCN(c7ccc8c(n7)CN(C7CCC(=O)NC7=O)C8=O)[C@@H](C)C6)C5)CC4)ncc3Cl)ccc2n(C(C)C)c1=O (stereo partly drawn) [Compound 192] | < 10 nM | ≥ 70% | – | –
CNC(=O)COc1cc2cc(Nc3nc(N4CCC(CN5CCC6(CC5)CN(c5ccc7c(c5)C(=O)N(C5CCC(=O)NC5=O)C7=O)C6)CC4)ncc3Cl)ccc2n(CCOC)c1=O (stereo not drawn) [Compound 37, 2-{[6-({5-chloro-2-[4-({2-[2-(2,6-dioxopiperidin-3-yl)-1,3-dioxo-2,3-dihydro-1H-isoindol-5-yl]-2,7-diazaspiro[3.5]nonan-7-yl}methyl)piperidin-1-yl]pyrimidin-4-yl}amino)-1-(2-methoxyethyl)-2-oxo-1,2-dihydroquinolin-3-yl]oxy}-N-methylacetamide] | < 10 nM | 50 to 70% | – | –
CNC(=O)COc1cc2cc(Nc3nc(N4CCC(O[C@H]5C[C@H](N6CCN(C7CN(c8ccc9c(c8F)CN(C8CCC(=O)NC8=O)C9=O)C7)CC6)C5)CC4)ncc3Cl)ccc2n(C(C)C)c1=O (stereo partly drawn) [Compound 422, 2-({6-[(5-chloro-2-{4-[(1r,3r)-3-(4-{1-[2-(2,6-dioxopiperidin-3-yl)-4-fluoro-1-oxo-2,3-dihydro-1H-isoindol-5-yl]azetidin-3-yl}piperazin-1-yl)cyclobutoxy]piperidin-1-yl}pyrimidin-4-yl)amino]-2-oxo-1-(propan-2-yl)-1,2-dihydroquinolin-3-yl}oxy)-N-methylacetamide] | – | – | ≥ 70% | < 10 nM
CNC(=O)COc1cc2cc(Nc3nc(N4CCC(CN5CC6(CCN(c7cccc8c7C(=O)N(C7CCC(=O)NC7=O)C8=O)CC6(F)F)C5)CC4)ncc3Cl)ccc2n(C(C)C)c1=O (stereo not drawn) [Compound 124, 2-{[6-({5-chloro-2-[4-({7-[2-(2,6-dioxopiperidin-3-yl)-1,3-dioxo-2,3-dihydro-1H-isoindol-4-yl]-5,5-difluoro-2,7-diazaspiro[3.5]nonan-2-yl}methyl)piperidin-1-yl]pyrimidin-4-yl}amino)-2-oxo-1-(propan-2-yl)-1,2-dihydroquinolin-3-yl]oxy}-N-methylacetamide] | < 10 nM | 50 to 70% | – | –
CNC(=O)COc1cc2cc(Nc3nc(N4CCC(C(C)(C)N5CCC6(CC5)CN(c5cccc7c5C(=O)N(C5CCC(=O)NC5=O)C7=O)C6)CC4)ncc3Cl)ccc2n(C(C)C)c1=O (stereo not drawn) [Compound 46, 2-{[6-({5-chloro-2-[4-(2-{2-[2-(2,6-dioxopiperidin-3-yl)-1,3-dioxo-2,3-dihydro-1H-isoindol-4-yl]-2,7-diazaspiro [3.5]nonan-7-yl}propan-2-yl)piperidin-1-yl]pyrimidin-4-yl}amino)-2-oxo-1-(propan-2-yl)-1,2-dihydroquinolin-3-yl]oxy}-N-methylacetamide] | < 10 nM | ≥ 70% | – | –
CNC(=O)COc1cc2cc(Nc3nc(N4CCC(O[C@H]5C[C@H](N6[C@H](C)CN(c7ccc8c(c7)C(=O)N(C7CCC(=O)NC7=O)C8=O)C[C@H]6C)C5)CC4)ncc3Cl)ccc2n(C(C)C)c1=O (stereo partly drawn) [Compound 249, 2-({6-[(5-chloro-2-{4-[(1r,3r)-3-[(2R,6R)-4-[2-(2,6-dioxopiperidin-3-yl)-1,3-dioxo-2,3-dihydro-1H-isoindol-5-yl]-2,6-dimethylpiperazin-1-yl]cyclobutoxy]piperidin-1-yl}pyrimidin-4-yl)amino]-2-oxo-1-(propan-2-yl)-1,2-dihydroquinolin-3-yl}oxy)-N-methylacetamide] | – | – | < 50% | 10 to 50 nM
CNC(=O)COc1cc2c(F)c(Nc3nc(N4CCC(O[C@H]5C[C@H](N6CCC(c7ccc8c(c7F)CN([C@@H]7CCC(=O)NC7=O)C8=O)CC6)C5)CC4)ncc3Cl)ccc2n(C(C)C)c1=O [Compound 381, 2-({6-[(5-chloro-2-{4-[(1r,3r)-3-(4-{2-[(3R)-2,6-dioxopiperidin-3-yl]-4-fluoro-1-oxo-2,3-dihydro-1H-isoindol-5-yl}piperidin-1-yl)cyclobutoxy]piperidin-1-yl}pyrimidin-4-yl)amino]-5-fluoro-2-oxo-1-(propan-2-yl)-1,2-dihydroquinolin-3-yl}oxy)-N-methylacetamide] | – | – | ≥ 70% | < 10 nM
CNC(=O)COc1cc2cc(Nc3nc(N4CCC(O[C@H]5C[C@H](N6CCN(c7ccc8c(c7C)CN(C7CCC(=O)NC7=O)C8=O)CC6)C5)CC4)ncc3Cl)ccc2n(C(C)C)c1=O (stereo partly drawn) [Compound 416, 2-({6-[(5-chloro-2-{4-[(1r,3r)-3-{4-[2-(2,6-dioxopiperidin-3-yl)-4-methyl-1-oxo-2,3-dihydro-1H-isoindol-5-yl]piperazin-1-yl}cyclobutoxy]piperidin-1-yl}pyrimidin-4-yl)amino]-2-oxo-1-(propan-2-yl)-1,2-dihydroquinolin-3-yl}oxy)-N-methylacetamide] | – | – | ≥ 70% | < 10 nM
CNC(=O)COc1cc2cc(Nc3nc(N4CCC(O[C@H]5C[C@H](N6CCN(CC7CCN(c8ccc9c(c8F)CN(C8CCC(=O)NC8=O)C9=O)CC7)CC6)C5)CC4)ncc3Cl)ccc2n(C(C)C)c1=O (stereo partly drawn) [Compound 286, 2-({6-[(5-chloro-2-{4-[(1r,3r)-3-[4-({1-[2-(2,6-dioxopiperidin-3-yl)-4-fluoro-1-oxo-2,3-dihydro-1H-isoindol-5-yl]piperidin-4-yl}methyl)piperazin-1-yl]cyclobutoxy]piperidin-1-yl}pyrimidin-4-yl)amino]-2-oxo-1-(propan-2-yl)-1,2-dihydroquinolin-3-yl}oxy)-N-methylacetamide] | – | – | 50 to 70% | < 10 nM
CNC(=O)COc1cc2cc(Nc3nc(N4CCOC5(CN(CCC6CCN(c7cccc8c7C(=O)N(C7CCC(=O)NC7=O)C8=O)CC6)C5)C4)ncc3Cl)ccc2n(C(C)C)c1=O (stereo not drawn) [Compound 16] | ≥ 100 nM | – | – | –
CNC(=O)COc1cc2cc(Nc3nc(N4CCN(C(C)(C)C5CCN(c6ccc7c(c6)CN(C6CCC(=O)NC6=O)C7=O)CC5)CC4)ncc3Cl)ccc2n(C(C)C)c1=O (stereo not drawn) [Compound 13, 2-{[6-({5-chloro-2-[4-(2-{1-[2-(2,6-dioxopiperidin-3-yl)-1-oxo-2,3-dihydro-1H-isoindol-5-yl]piperidin-4-yl}propan-2-yl)piperazin-1-yl]pyrimidin-4-yl}amino)-2-oxo-1-(propan-2-yl)-1,2-dihydroquinolin-3-yl]oxy}-N-methylacetamide] | < 10 nM | ≥ 70% | – | –
